Experiments:
[1] = tested on: K562-MDR1 cells; assay: Annexin V-FITC/PI apoptosis measurement, K562-MDR1; format: cell-based, human; details: 5 µM, 24 h
Description: Cells were seeded in 6-well plates (K562 or K562-MDR1) or in 24-well plates (CD34^+ cells). After 24 h, BK124.1 or DMSO was added. After a further 24 h, cells were stained using the Annexin V-FITC kit for the detection of apoptosis (BD, Franklin Lakes, NJ, USA) and immediately analyzed on a BD FACSCalibur using CellQuest software (BD, Franklin Lakes, NJ, USA). […]
incubated overnight at 37 °C and analyzed using an iMark Microp late absorbance reader (Bio-Rad, Hercules, CA, USA). Results were calculated relative to control cells treated with DMSO only.
[…] CD34+ cells were plated at a concentration of 2.5 × 10^5 cells/mL in a 24-well plate. […] A f t e r a further 24 hours, cells were harvested and stained according to the manufacturer's protocol using the Annexin V-FITC kit for the detection of apoptosis (BD, Franklin Lakes, NJ, USA). Stained cells were immediately analyzed on a BD FACSCalibur using CellQuest softwa re (BD, Franklin Lakes, NJ, USA).
Cells were seeded at a concentration of 1-2 × 10^5 cells/mL in a 6-well plate. After 24 hours of pre-incubation, BK124.1 in DMSO was added to the cells (vDMSO/vmedium), and incubated for 24 or 48 hours.
After incubation, cells were washed twice with ice-cold PBS (Mg2+ and Ca2+-free), resuspended in ice-cold 70% ethanol, and placed at -20 °C for 24 hours. […]
Flow cytometry analysis of CD243 (P-glycoprotein) […]

[2] = tested on: K562-MDR1 cells; assay: P-glycoprotein (CD243)/propidium iodide flow cytometry; format: cell-based, human
Description: BK124.1 or DMSO were added to cells and after 24 h incubation cells were harvested and stained with FITC Mouse Anti-Human P-glycoprotein (CD243) clone 17F9 (BD, Franklin Lakes, NJ, USA) or an appropriate isotype control. Propidium iodide was added to […]. Cells were analyzed on a BD FACSCalibur flow cytometer using CellQuest software (BD, Franklin Lakes, NJ, USA). […]
Flow cytometry analysis of CD243 (P-glycoprotein)
Cells were seeded at a concentration of 1-2 × 10^5 cells/mL in a 6- or 24-well plate. After 24 hours of pre-incubation, DMSO or test compounds in DMSO were added. The cells were then incubated for 24 hours. After this time, cells were harvested, washed with 0.5% BSA in PBS (Mg2+ and Ca2+ free), and labeled for 30 minutes on ice with FITC Mouse Anti-Human P-glycoprotein (CD243) clone 17F9 (BD, Franklin Lakes, NJ, USA) or an appropriate isotype control. Following incubation with the antibody, cells were stained with propidium iodide, washed with PBS and a nalyzed on a BD FACSCalibur flow cytometer using CellQuest software (BD, Franklin Lakes, NJ, USA). […]

[3] = tested on: K562 cells; assay: K562 xenogeneic mouse model, tumor growth; format: in vivo, NSG mice; details: for Tumor weights: mean ± SD, N=4, tumor growth control 9.2±2.1
Description: Statistical analysis was performed using GraphPad Prism version 9.1.0. All in vitro experiments were performed in at least triplicate biological replicates and statistical results are expressed as mean ± standard deviation (SD). Statistical data of animal experiments are expressed as mean ± standard error of the mean (SEM). For experiments involving patients, the normality of the distribution was checked using the Shapiro–Wilk test and the statistical analysis was performed using one-way ANOVA with Dunnett’s post-test * p < 0.05, ** […], *** 0.001 > p > 0.0001, **** p < 0.0001.
Table S3. […] Control and
IP, intraperitoneal administration; O, orally

For `CCC12C(=O)C(CC)(C(c3ccccc3)=C1c1ccccc1)C1C(=O)N(CC(O)CNC(C)C)C(=O)C12` (centres unmarked) [BK124.1, 4-[2-hydroxy-3-(propan-2-ylamino)propyl]-1,7-diethyl-8,9-diphenyl-4-azatricyclo [5.2.1.02,6]dec-8-ene-3,5,10-trione], the “Apoptosis” value [1] was 30.1%, the “Proportion of K562-MDR1 cells, mean value” ([2]; 5 µM, 24 h, DMSO control 33.6%) was 68.3% and the viability at 5 µM ([2]; Homo sapiens, 5 µM, 24 h, DMSO control 89.2%, read-out: Living cells (viability), mean value) was 53.8%. For the same compound, the MDR1 substrate ([2]; conclusion from K562-MDR1 data) was “not a MDR1 substrate”, the Tumor weights ([3]; 20 mg/kg IP daily 14 days) was 1.6 ± 1.6 g and the Tumor weights ([3]; 30 mg/kg IP daily 14 days) was 1.9 ± 1.8 g. For the same compound, the “Tumor growth versus control groups” value ([3]; BK124.1 20 or 30 mg/kg IP, imatinib 100 mg/kg orally, hydroxyurea 500 mg/kg IP, 1 x daily) was “effectively inhibited” and the Tumor volume ([3]; prolonged treatment (days 4-17), IP 20 or 30 mg/kg, comparable with hydroxyurea or imatinib) was “significant reduction in tumor volume”.

Source: publication PMC9332833 (Cancers, 2022)
